The results in this text go back to patent publication EP4768489A1, “CYCLOBUTYL-CONTAINING COMPOUNDS” (Chia Tai Tianqing Pharmaceutical Group Co., Ltd., priority 2023, dated 2025).

Where a chain is given by its changes, count along the chain named.

The subject of series [1] is LNCaP (T878A) cells. The series can be described thus: cells. The following applies: Homo sapiens, 168 h.
Procedure: LNCaP cells in a good growth state were taken, washed with PBS, and digested with pancreatin, and a phenol red-free 1640 complete medium containing 2% CSS-FBS was added to terminate the digestion. The cells were collected into a centrifuge tube, adjusted to a cell density of 1 × 10^5 cells/mL, and seeded in a 96-well plate (100 µL/well). Meanwhile, compounds were added using a nanoliter pipettor and subjected to a 2-fold gradient dilution such that the final concentrations of the compounds were 1000 nM-0.061 nM and 5000 nM-0.305 nM. 2 duplicate wells were set, and meanwhile, a control was set. After the cells were cultured in the cell incubator for another 168 h, the detection reagent CCK-8 (manufacturer: Dojindo, 10 µL/well) was added. After 2.0 h of incubation in the cell incubator, absorbance values at 450 nm were measured using a PerkinElmer Envision microplate reader, the four-parameter analysis was performed, the dose-response curves were fit, and IC50 was calculated.
Series [2] concerns the target T1, AR in LNCaP (T878A) cells (Homo sapiens, UniProt P10275, T878A).
T1 construct: Assay on degradation activity for AR in LNCaP (T878A) cells; endogenous in cells; host or cells: LNCaP cells
T1 sequence (P10275 1-920 T878A): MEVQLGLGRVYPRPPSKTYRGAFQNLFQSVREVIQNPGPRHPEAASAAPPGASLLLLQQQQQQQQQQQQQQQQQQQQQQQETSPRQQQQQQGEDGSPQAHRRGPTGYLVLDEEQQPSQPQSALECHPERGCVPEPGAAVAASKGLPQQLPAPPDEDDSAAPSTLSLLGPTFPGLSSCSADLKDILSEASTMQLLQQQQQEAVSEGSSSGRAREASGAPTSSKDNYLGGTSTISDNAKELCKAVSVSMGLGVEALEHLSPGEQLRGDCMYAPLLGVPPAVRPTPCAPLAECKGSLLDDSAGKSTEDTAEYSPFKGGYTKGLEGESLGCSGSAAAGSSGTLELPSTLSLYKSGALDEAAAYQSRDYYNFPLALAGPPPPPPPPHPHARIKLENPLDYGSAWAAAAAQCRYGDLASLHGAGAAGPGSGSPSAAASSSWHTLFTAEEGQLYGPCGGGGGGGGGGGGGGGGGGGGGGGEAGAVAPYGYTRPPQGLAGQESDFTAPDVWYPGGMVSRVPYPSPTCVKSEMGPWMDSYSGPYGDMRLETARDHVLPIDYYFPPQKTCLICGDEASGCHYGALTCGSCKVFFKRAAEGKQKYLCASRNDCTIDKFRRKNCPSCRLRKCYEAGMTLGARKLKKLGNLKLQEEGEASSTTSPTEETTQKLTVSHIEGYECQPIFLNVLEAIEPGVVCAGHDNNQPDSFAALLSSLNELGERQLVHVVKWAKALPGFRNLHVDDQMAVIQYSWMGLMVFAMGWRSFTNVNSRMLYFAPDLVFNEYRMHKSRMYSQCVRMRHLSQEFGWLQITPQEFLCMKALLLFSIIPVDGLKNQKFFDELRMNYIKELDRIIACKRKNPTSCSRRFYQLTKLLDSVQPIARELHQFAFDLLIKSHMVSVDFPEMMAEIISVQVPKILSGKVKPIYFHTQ
The series can be described thus: Assay on degradation activity for AR in LNCaP (T878A) cells (HTRF). Format: cell-based. The following applies: maximum degradation rate, 24 h. As for the experimental part:
(§1) The detection was carried out using the HTRF HUMAN ANDROGEN RECEPTOR DETECTION KIT (cisbio, 64ANDRPEG), 4× Supplemented Lysis buffer was prepared using the Blocking reagent stock solution (100×) and Lysis buffer stock solution (4×), and 1× Supplemented Lysis buffer was prepared using the 4× Supplemented Lysis buffer and ddH2O. Premixed antibody solutions were prepared using Detection buffer, Androgen Receptor Eu Cryptate antibody, and Androgen Receptor d2 antibody.
The cells were cultured overnight in a cell incubator. […] After the cells were oscillated for 40 min at room temperature, 16 µL of the cell lysis buffer was added to a 384-well plate, the Premixed antibody solutions were added at 4 µL/well, and the mixture was left to stand at 25 °C for 2 h. […] Table 2. Degradation activity of compounds for AR in LNCaP (T878A) cells
On the technique in general: In TR-FRET formats the signal depends on donor and acceptor labels being close together.

Series [3] concerns the target T2, AR in MDA-PCA-2B (L702H\T878A) cells (Homo sapiens, UniProt P10275, L702H/T878A).
T2 construct: Assay on degradation activity for AR in MDA-PCA-2B (L702H\T878A) cells; endogenous in cells; host or cells: MDA-PCA-2B cells
T2 sequence (P10275 1-920 L702H/T878A): T1 sequence (P10275 1-920 T878A) with L702H
In words: Assay on degradation activity for AR in MDA-PCA-2B (L702H\T878A) cells (HTRF). Format: cell-based. The following applies: 24 h; for DC50: AR degradation; for Dmax: maximum degradation rate. As to the method: as §1
The cells were cultured overnight in a cell incubator. […] After the cells were oscillated for 40 min at room temperature, 16 µL of the cell lysis buffer was added to a 384-well plate, the Premixed antibody solutions were added at 4 µL/well, and the mixture was left to stand at 25 °C for 2 h. […]

Series [4] is described as follows: Mouse pharmacokinetics. The following applies: Mouse i.g. (0-48 h), 10 mpk vs i.v. 1 mpk.
Procedure: (§2) ICR mice weighing 18-22 g were randomized into groups of 9 after 3-5 days of acclimatization. The mice in the intragastric administration group were intragastrically given the test compound solution at a dose of 10 mg/kg (20 mg/kg or 30 mg/kg), and the mice in the intravenous injection administration group were intravenously injected with the test compound solution at a dose of 1 mg/kg.
(§3) Blood was collected from the orbit to prepare plasma samples to be tested.
(§4) 30 µL of each of the plasma samples to be tested and a standard curve sample were taken, and an acetonitrile solution containing an internal standard was added. Supernatants were obtained by protein precipitation, diluted with a 1:1 (v:v) mixed solution of acetonitrile and water, and then assayed by LC/MS/MS. Data were fitted using a non-compartmental model.
Series [5] relates to MDA-PCA-2B (L702H\T878A) cells. The series can be described thus: Assay on inhibitory activity for MDA-PCA-2B (L702H\T878A) cell proliferation (CCK-8). Format: cell-based. The following applies: 168 h. From the text:
Table 7. Inhibitory activity of compounds for MDA-PCA-2B (L702H\T878A) cell proliferation

Series [6] can be described thus: in vivo. The following applies: mouse.
Procedure: as §2, §3, §4
Series [7] concerns 22RV1 (H875Y/ARV7) cells. The series can be described thus: Assay on inhibitory activity for 22RV1 (H875Y/ARV7) cell proliferation (CellTiter-Glo). It is filed as cell-based. The following applies: Homo sapiens, 168 h. As for the experimental part: After 10 min of incubation at room temperature, the mixture was transferred to a white plate at 100 µL/well. […] Table 6. Inhibitory activity of compounds for 22RV1 (H875Y/ARV7) cell proliferation
A general note: In ATP-based viability assays light output follows the ATP content of the culture.

What is called IC50 is the midpoint of a concentration-inhibition curve. Lower therefore signals inhibition by little substance. For orientation: Dmax means the largest share of the target that was removed. Higher therefore signals a fuller loss of target. The DC50 is the midpoint of the concentration-degradation curve. Lower therefore signals degradation at low concentration. Take `COc1cc(O[C@H]2C(C)(C)[C@H](NC(=O)c3ccc(N4CCC(CN5CCc6c(ccc7c(C8CCC(=O)NC8=O)noc67)C5)CC4)nn3)C2(C)C)ccc1C#N` (stereo partly shown) [Compound 6]: in series [1], the 50% inhibitory concentration (IC50) is < 50 nM. In addition, the maximal degradation (Dmax) in series [2] was > 90%. Moreover, in series [3], the DC50 was < 500 nM and the Dmax was > 70%.

By AUC is commonly meant concentration integrated over time. A low value points to low exposure. One may read the Vd as the apparent volume that relates the amount in the body to the concentration in plasma or blood. A lower Vd goes with little distribution into tissue. As usually defined, the clearance is a measure of how efficiently the substance is removed, as volume per time. By half-life is commonly meant the time in which the quantity being followed falls by half. Broadly, the Cmax is the highest concentration seen after dosing. For the molecule `COc1cc(O[C@H]2C(C)(C)[C@H](NC(=O)c3ccc(N4CCC(CN5CCc6c(ccc7c(C8CCC(=O)NC8=O)noc67)C5)CC4)cc3)C2(C)C)ccc1C#N` (stereo partly shown) [Compound 1], the F in series [4] was 31.99%. Moreover, the IC50 in series [1] is < 50 nM. Moreover, the maximal degradation (Dmax) in series [2] was > 90%. In series [5], the 50% inhibitory concentration (IC50) is < 500 nM. In series [6] (iv, 1 mg/kg), the area under the curve (AUC) at 48 h turned out to be 8380 ng·h/mL, the Vd is 2.13 L/kg, the clearance was 1.78 mL/min/kg and the half-life was 13.9 h. In series [6] (po, 10 mg/kg), the AUC at 48 h stood at 26800 ng·h/mL, the peak level (Cmax) was 786 ng/mL and the half-life is 24.9 h. Besides, in series [3], the DC50 is < 500 nM and the Dmax is > 70%. In series [7], the IC50 was < 500 nM.

In the case of `COc1cc(O[C@H]2C(C)(C)[C@H](NC(=O)c3cnc(N4CCC(CN5CCc6c(ccc7c(C8CCC(=O)NC8=O)noc67)C5)CC4)cn3)C2(C)C)ccc1C#N` (stereo partly shown) [Compound 5], the F in series [4] is 50.78%. In series [1], the 50% inhibitory concentration (IC50) is < 50 nM. Besides, in series [2], the Dmax is > 90%. Besides, the IC50 in series [5] was < 500 nM. In series [6] (iv, 1 mg/kg), the exposure (AUC) at 48 h came to 4340 ng·h/mL, the Vd is 3.79 L/kg, the clearance was 3.5 mL/min/kg and the half-life is 9.91 h. In series [6] (po, 10 mg/kg), this molecule showed an AUC at 48 h of 22100 ng·h/mL, a Cmax of 1010 ng/mL and a half-life of 9.72 h. Besides, in series [3], the DC50 was < 500 nM and the Dmax is > 70%. Also, in series [7], the half-maximal inhibitory concentration (IC50) was < 500 nM.

As to `COc1cc(O[C@H]2C(C)(C)[C@H](NC(=O)c3ccc(N4CCC(CN5CCc6c(ccc7c(C8CCC(=O)NC8=O)noc67)C5)CC4)nc3)C2(C)C)ccc1C#N` (stereo partly shown) [Compound 3], the half-maximal inhibitory concentration (IC50) in series [1] is < 50 nM; in series [5], < 500 nM; in series [7] it was < 500 nM. Further, the figures for the Dmax in series [2] and in series [3] were > 90% and > 70%, respectively. Moreover, the 50% degradation concentration (DC50) in series [3] is < 500 nM.

In the case of `COc1cc(O[C@H]2C(C)(C)[C@H](NC(=O)c3cnc(N4CCC(CN5CCc6c(ccc7c(C8CCC(=O)NC8=O)noc67)C5)CC4)nc3)C2(C)C)ccc1C#N` (stereo partly shown) [Compound 4], the F in series [4] stood at 55.36%. Further, the IC50 in series [1] is < 50 nM. Besides, the greatest degradation seen (Dmax) in series [2] was > 90%. In series [5], the half-maximal inhibitory concentration (IC50) is < 500 nM. In series [6] (iv, 1 mg/kg), this molecule gave an exposure (AUC) at 48 h of 7730 ng·h/mL, a Vd of 2.14 L/kg, a clearance of 1.97 mL/min/kg and a half-life of 10.5 h. In series [6] (po, 10 mg/kg), this molecule showed an exposure (AUC) at 48 h of 39000 ng·h/mL, a Cmax of 1360 ng/mL and a half-life of 11.7 h. Moreover, in series [3], the DC50 is < 500 nM and the greatest degradation seen (Dmax) was > 70%. Moreover, the IC50 in series [7] was < 500 nM.
